Results taken from patent US20040072846A1, “Pharmaceutical formulation containing thienopyrimidines and antithrombotics, calcium antagonists, prostaglandins or prostaglandin derivatives” (priority 2000, published 2004).

melting point: 229 °C
Compound: COc1ccc(CNc2nc(CCC(=O)O)nc3sc4c(c23)CCCC4)cc1Cl [Example 2, 3-[4-(3-chloro-4-methoxybenzylamino)-5,6,7,8-tetrahydro-[1]-benzothieno-[2,3-d]-pyrimidin-2-yl]propionic acid]
